# Experimental data taken from patent publication US9663496B2, “AMPK-activating heterocyclic compounds and methods for using the same” (Rigel Pharmaceuticals, Inc., priority 2010, dated 2017).
# Target: AMPK
# Test: AMPK activation, enzyme-linked immunosorbent assay
# Format: biochemical
# Details: EC50 for AMPK activation, ELISA
# In short: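 Read-out: immunodetected kinase activation after compound exposure, run with commercial kit reagents.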
row,Compound,EC50 [nM]
1,"N#Cc1ccc(CN2CCC(NC(=O)c3ccc(C(=O)N4CCN(CC5CCCCC5)CC4)cn3)CC2)cc1 [Compound 95, N-(1-(4-cyanobenzyl)piperidin-4-yl)-5-(4-(cyclohexylmethyl)piperazine-1-carbonyl)picolinamide]",< 500
2,"COc1ccc(CN2CCC(NC(=O)c3ccc(C(=O)N4CCN(Cc5ccc(F)cc5)CC4)nc3)CC2)cc1 [Compound 327, 6-(4-(4-fluorobenzyl)piperazine-1-carbonyl)-N-(1-(4-methoxybenzyl)piperidin-4-yl)nicotinamide]",< 500
3,"COc1ccc(C(=O)C2CCN(C(=O)c3ccc(C(=O)NC4CCN(Cc5ccc(C#N)cc5)CC4)nc3)CC2)cc1 [Compound 129, N-(1-(4-cyanobenzyl)piperidin-4-yl)-5-(4-(4-methoxybenzoyl)piperidine-1-carbonyl)picolinamide]",< 500
4,"O=C(NC1CCN(Cc2cc(F)cc(F)c2)CC1)c1ccc(C(=O)N2CCC(C(=O)c3ccc(F)cc3)CC2)cn1 [Compound 288, N-(1-(3,5-difluorobenzyl)piperidin-4-yl)-5-(4-(4-fluorobenzoyl)piperidine-1-carbonyl)picolinamide]",< 500
5,"N#Cc1ccc(O[C@H]2CC[C@@H](NC(=O)c3ccc(C(=O)N4CCN(Cc5ccc(F)cc5)CC4)nc3)CC2)cc1 [Compound 332, N-((cis)-4-(4-cyanophenoxy)cyclohexyl)-6-(4-(4-fluorobenzyl)piperazine-1-carbonyl)nicotinamide]",< 500
6,"COc1ccc(C(=O)C2CCN(C(=O)c3ccc(C(=O)N[C@H]4CC[C@@H](Oc5ccc(C#N)c(F)c5)CC4)nc3)CC2)cc1 [Compound 198, N-((cis)-4-(4-cyano-3-fluorophenoxy)cyclohexyl)-5-(4-(4-methoxybenzoyl)piperidine-1-carbonyl)picolinamide]",< 500
7,"N#Cc1ccc(OC2CCN(C(=O)c3ccc(C(=O)NCCOc4ccc(F)cc4)nc3)CC2)cc1 [Compound 306, 5-(4-(4-cyanophenoxy)piperidine-1-carbonyl)-N-(2-(4-fluorophenoxy)ethyl)picolinamide]",< 500
8,"CS(=O)(=O)Nc1ccc(CN2CCC(NC(=O)c3ccc(C(=O)N4CCC(Oc5ccc(C#N)cc5)CC4)nc3)CC2)cc1 [Compound 217, 6-(4-(4-cyanophenoxy)piperidine-1-carbonyl)-N-(1-(4-(methylsulfonamido)benzyl)piperidin-4-yl)nicotinamide]",> 10000
9,"O=C(NC1CCN(Cc2ccc(Cl)cc2)CC1)c1ccc(C(=O)N2CCN(Cc3ccc(F)cc3)CC2)cn1 [Compound 52, N-(1-(4-chlorobenzyl)piperidin-4-yl)-5-(4-(4-fluorobenzyl)piperazine-1-carbonyl)picolinamide]",< 500
10,"N#Cc1ccc(CN2CCC(NC(=O)c3ccc(C(=O)NCCOc4ccc(F)cc4)cn3)CC2)cc1 [Compound 149, N2-(1-(4-cyanobenzyl)piperidin-4-yl)-N5-(2-(4-fluorophenoxy)ethyl)pyridine-2,5-dicarboxamide]",500 to 1000
11,"N#Cc1ccc(CN2CCC(NC(=O)c3ccc(C(=O)N4CCN(C(=O)C5CCCCC5)CC4)cn3)CC2)cc1 [Compound 89, N-(1-(4-cyanobenzyl)piperidin-4-yl)-5-(4-(cyclohexanecarbonyl)piperazine-1-carbonyl)picolinamide]",1000 to 5000
12,"O=C(NC1CCN(Cc2ccc(F)cc2)CC1)c1ccc(C(=O)N2CCC(Oc3cccc(NC(=O)C4CC4)c3)CC2)nc1 [Compound 432, 6-(4-(3-(cyclopropanecarboxamido)phenoxy)piperidine-1-carbonyl)-N-(1-(4-fluorobenzyl)piperidin-4-yl)nicotinamide]",500 to 1000
